Test results reported in ChEMBL document CHEMBL1153245, “A profile of the in vitro anti-tumor activity of imidazolium-based ionic liquids” (2010).

Columns and labels:
Assay type in all cases: functional
SF-295 [1] = experiment: Anticancer activity against human SF295 cells assessed cell growth at 10 uM after 48 hrs by sulforhodamine B assay relative to control
OVCAR-5 [2] = experiment: Anticancer activity against human OVCAR5 cells assessed cell growth at 10 uM after 48 hrs by sulforhodamine B assay relative to control
SW-620 [3] = experiment: Anticancer activity against human SW620 cells assessed cell growth at 10 uM after 48 hrs by sulforhodamine B assay relative to control
A498 [4] = experiment: Anticancer activity against human A498 cells assessed cell growth at 10 uM after 48 hrs by sulforhodamine B assay relative to control
SF-268 [5] = experiment: Anticancer activity against human SF268 cells assessed cell growth at 10 uM after 48 hrs by sulforhodamine B assay relative to control
T47D [6] = experiment: Anticancer activity against human T47D cells assessed cell growth at 10 uM after 48 hrs by sulforhodamine B assay relative to control
MDA-MB-435 [7] = experiment: Anticancer activity against human MDA-MB-435 cells assessed cell growth at 10 uM after 48 hrs by sulforhodamine B assay relative to control
MCF7 [8] = experiment: Anticancer activity against human MCF7 cells assessed cell growth at 10 uM after 48 hrs by sulforhodamine B assay relative to control
OVCAR-8 = experiment: Anticancer activity against human OVCAR8 cells assessed cell growth at 10 uM after 48 hrs by sulforhodamine B assay relative to control
SK-OV-3 [9] = experiment: Anticancer activity against human SKOV3 cells assessed cell growth at 10 uM after 48 hrs by sulforhodamine B assay relative to control
KM12 = experiment: Anticancer activity against human KM12 cells assessed cell growth at 10 uM after 48 hrs by sulforhodamine B assay relative to control
HCT-15 [10] = experiment: Anticancer activity against human HCT15 cells assessed cell growth at 10 uM after 48 hrs by sulforhodamine B assay relative to control
TK-10 = experiment: Anticancer activity against human TK10 cells assessed cell growth at 10 uM after 48 hrs by sulforhodamine B assay relative to control
HCT-116 [11] = experiment: Anticancer activity against human HCT116 cells assessed cell growth at 10 uM after 48 hrs by sulforhodamine B assay relative to control
MDA-MB-435 [12] = experiment: Anticancer activity against human MDA-MB-435 cells after 48 hrs by sulforhodamine B assay; conditions: Homo sapiens, MDA-MB-435, 48 h
HCT-15 [13] = experiment: Anticancer activity against human HCT15 cells after 48 hrs by sulforhodamine B assay; conditions: Homo sapiens, HCT-15, 48 h
NCI/ADR-RES = experiment: Anticancer activity against human NCI/ADR-RES cells after 48 hrs by sulforhodamine B assay; conditions: Homo sapiens, NCI/ADR-RES, 48 h
SF-268 [14] = experiment: Anticancer activity against human SF268 cells after 48 hrs by sulforhodamine B assay; conditions: Homo sapiens, SF-268, 48 h
OVCAR-5 [15] = experiment: Anticancer activity against human OVCAR5 cells after 48 hrs by sulforhodamine B assay; conditions: Homo sapiens, OVCAR-5, 48 h
NCI-H226 = experiment: Anticancer activity against human NCI-H226 cells after 48 hrs by sulforhodamine B assay; conditions: Homo sapiens, NCI-H226, 48 h
DU-145 = experiment: Anticancer activity against human DU145 cells after 48 hrs by sulforhodamine B assay
T47D [16] = experiment: Anticancer activity against human T47D cells after 48 hrs by sulforhodamine B assay; conditions: Homo sapiens, T47D, 48 h
SF-295 [17] = experiment: Anticancer activity against human SF295 cells after 48 hrs by sulforhodamine B assay; conditions: Homo sapiens, SF-295, 48 h
SR = experiment: Anticancer activity against human SR cells after 48 hrs by sulforhodamine B assay; conditions: Homo sapiens, SR, 48 h
SN12C = experiment: Anticancer activity against human SN12C cells after 48 hrs by sulforhodamine B assay; conditions: Homo sapiens, SN12C, 48 h
MDA-MB-468 = experiment: Anticancer activity against human MDA-MB-468 cells after 48 hrs by sulforhodamine B assay; conditions: Homo sapiens, MDA-MB-468, 48 h
Malme-3M = experiment: Anticancer activity against human MALME-3M cells after 48 hrs by sulforhodamine B assay; conditions: Homo sapiens, Malme-3M, 48 h
OVCAR-3 = experiment: Anticancer activity against human OVCAR-3 cells after 48 hrs by sulforhodamine B assay; conditions: Homo sapiens, OVCAR-3, 48 h
ACHN = experiment: Anticancer activity against human ACHN cells after 48 hrs by sulforhodamine B assay; conditions: Homo sapiens, ACHN, 48 h
NCI-H460 = experiment: Anticancer activity against human NCI-H460 cells after 48 hrs by sulforhodamine B assay; conditions: Homo sapiens, NCI-H460, 48 h
HCT-116 [18] = experiment: Anticancer activity against human HCT116 cells after 48 hrs by sulforhodamine B assay; conditions: Homo sapiens, HCT-116, 48 h
NCI-H322M = experiment: Anticancer activity against human NCI-H322M cells after 48 hrs by sulforhodamine B assay; conditions: Homo sapiens, NCI-H322M, 48 h
SW-620 [19] = experiment: Anticancer activity against human SW620 cells after 48 hrs by sulforhodamine B assay
SK-MEL-28 = experiment: Anticancer activity against human SK-MEL-28 cells after 48 hrs by sulforhodamine B assay
UACC-62 = experiment: Anticancer activity against human UACC62 cells after 48 hrs by sulforhodamine B assay; conditions: Homo sapiens, UACC-62, 48 h
COLO 205 = experiment: Anticancer activity against human COLO205 cells after 48 hrs by sulforhodamine B assay; conditions: Homo sapiens, COLO 205, 48 h
MCF7 [20] = experiment: Anticancer activity against human MCF7 cells after 48 hrs by sulforhodamine B assay; conditions: Homo sapiens, MCF7, 48 h
A498 [21] = experiment: Anticancer activity against human A498 cells after 48 hrs by sulforhodamine B assay; conditions: Homo sapiens, A498, 48 h
SK-OV-3 [22] = experiment: Anticancer activity against human SKOV3 cells after 48 hrs by sulforhodamine B assay; conditions: Homo sapiens, SK-OV-3, 48 h
HL-60(TB) = experiment: Anticancer activity against human HL-60(TB) cells after 48 hrs by sulforhodamine B assay; conditions: Homo sapiens, HL-60, 48 h
[23] = Anticancer activity against human Hs 578T cells after 48 hrs by sulforhodamine B assay; conditions: Homo sapiens, Hs-578T, 48 h
[24] = read-out: LC50 (the source's name)

## COCC[n+]1ccn(C)c1.O=S(=O)([N-]S(=O)(=O)C(F)(F)F)C(F)(F)F
SF-295 [1]
  Activity: 112.28%
OVCAR-5 [2]
  Activity: 112.96%
SW-620 [3]
  Activity: 99.89%
A498 [4]
  Activity: 75.43%
SF-268 [5]
  Activity: 107.22%
T47D [6]
  Activity: 100.59%
MDA-MB-435 [7]
  Activity: 117.7%
MCF7 [8]
  Activity: 101.56%
OVCAR-8
  Activity: 96.68%
SK-OV-3 [9]
  Activity: 107.49%
KM12
  Activity: 105.57%
HCT-15 [10]
  Activity: 101.44%
TK-10
  Activity: 123.77%
HCT-116 [11]
  Activity: 102.12%

## CCCCCCCC[n+]1ccn(C)c1.F[P-](F)(F)(F)(F)F
SF-295 [1]
  Activity: 79.54%
OVCAR-5 [2]
  Activity: 96.06%
SW-620 [3]
  Activity: 73.41%
A498 [4]
  Activity: 85.75%
SF-268 [5]
  Activity: 96.73%
T47D [6]
  Activity: 73.53%
MDA-MB-435 [7]
  Activity: 52.08%
MCF7 [8]
  Activity: 69.15%
OVCAR-8
  Activity: 78.96%
SK-OV-3 [9]
  Activity: 69.29%
KM12
  Activity: 71.32%
HCT-15 [10]
  Activity: 97.27%
TK-10
  Activity: 57.87%
HCT-116 [11]
  Activity: 56.26%

## CCCCCCCC[n+]1ccn(C)c1.F[B-](F)(F)F
SF-295 [1]
  Activity: 78.23%
OVCAR-5 [2]
  Activity: 92.12%
SW-620 [3]
  Activity: 80.56%
A498 [4]
  Activity: 99.32%
SF-268 [5]
  Activity: 103.08%
T47D [6]
  Activity: 75.19%
MDA-MB-435 [7]
  Activity: 59.67%
MCF7 [8]
  Activity: 76.87%
OVCAR-8
  Activity: 73.05%
SK-OV-3 [9]
  Activity: 81.16%
KM12
  Activity: 79.57%
HCT-15 [10]
  Activity: 97.47%
TK-10
  Activity: 76.77%
HCT-116 [11]
  Activity: 66.53%

## CCCCCCCCOS(=O)(=O)[O-].CCCCCCCC[n+]1ccn(C)c1
SF-295 [1]
  Activity: 80.68%
OVCAR-5 [2]
  Activity: 98.17%
SW-620 [3]
  Activity: 86.25%
A498 [4]
  Activity: 90.58%
SF-268 [5]
  Activity: 92.2%
T47D [6]
  Activity: 80.27%
MDA-MB-435 [7]
  Activity: 55.5%
MCF7 [8]
  Activity: 75.57%
OVCAR-8
  Activity: 76.03%
SK-OV-3 [9]
  Activity: 82.36%
KM12
  Activity: 76.23%
HCT-15 [10]
  Activity: 107.62%
TK-10
  Activity: 68.07%
HCT-116 [11]
  Activity: 55.91%

## CCCCCCCCCCCC[n+]1ccn(C)c1.[Cl-]
MDA-MB-435 [12]
  GI50: 1.79 µM
MDA-MB-435 [12]; [24]
  CC50: 69.1 µM
HCT-15 [13]
  GI50: 20.8 µM
HCT-15 [13]; [24]
  CC50: > 100 µM
NCI/ADR-RES
  GI50: 55 µM
SF-295 [1]
  Activity: 9.99%
SF-268 [14]
  GI50: 4.68 µM
SF-268 [14]; [24]
  CC50: > 100 µM
OVCAR-5 [2]
  Activity: 45.62%
OVCAR-5 [15]
  GI50: 3.75 µM
OVCAR-5 [15]; [24]
  CC50: > 100 µM
NCI-H226
  GI50: 3.55 µM
SW-620 [3]
  Activity: 44.11%
DU-145
  GI50: 0.688 µM
DU-145; Homo sapiens, DU-145, 48 h, read-out: LC50 (the source's name)
  CC50: > 100 µM
A498 [4]
  Activity: 12.45%
T47D [16]
  GI50: 4.29 µM
T47D [16]; [24]
  CC50: > 100 µM
SF-268 [5]
  Activity: 58.74%
T47D [6]
  Activity: 24.65%
SF-295 [17]
  GI50: 2.36 µM
SF-295 [17]; [24]
  CC50: > 100 µM
SR
  GI50: 0.597 µM
SR; [24]
  CC50: 97.6 µM
MDA-MB-435 [7]
  Activity: 7.98%
SN12C
  GI50: 2.76 µM
MDA-MB-468
  GI50: 0.384 µM
Malme-3M
  GI50: 4.96 µM
OVCAR-3
  GI50: 2.84 µM
MCF7 [8]
  Activity: 3.94%
ACHN
  GI50: 7.24 µM
NCI-H460
  GI50: 3.39 µM
HCT-116 [18]
  GI50: 3.59 µM
HCT-116 [18]; [24]
  CC50: > 100 µM
OVCAR-8
  Activity: 11.53%
NCI-H322M
  GI50: 22.6 µM
SW-620 [19]
  GI50: 2.97 µM
SK-MEL-28
  GI50: 4.57 µM
UACC-62
  GI50: 3.12 µM
COLO 205
  GI50: 2.62 µM
COLO 205; [24]
  CC50: > 100 µM
MCF7 [20]
  GI50: 1.69 µM
A498 [21]
  GI50: 4.28 µM
A498 [21]; [24]
  CC50: > 100 µM
SK-OV-3 [9]
  Activity: 44.54%
KM12
  Activity: 14.03%
SK-OV-3 [22]
  GI50: 4.76 µM
SK-OV-3 [22]; [24]
  CC50: > 100 µM
HL-60(TB)
  GI50: 0.331 µM
HL-60(TB); [24]
  CC50: 7.78 µM
HCT-15 [10]
  Activity: 82.04%
[23]
  GI50: 3.13 µM
[23]; [24]
  CC50: > 100 µM
TK-10
  Activity: -1.53%
HCT-116 [11]
  Activity: 17.62%
